Here are results for nine molecules from ChEMBL document CHEMBL1139994, “Discovery of novel dialkyl substituted thiophene inhibitors of HCV by in silico screening of the NS5B RdRp” (Bioorg Med Chem Lett, 2007).

For experiment [1], the system named is Hepatitis C virus. The experiment can be described thus: Inhibition of HCV replicase complex in cell-free assay. To be noted: Hepacivirus hominis.
A short description of experiment [2]: Ratio of CC50 for Huh7 cells to EC50 for HCV. The class given is functional, Huh-7.
The target of experiment [3] is Hepatitis C virus. The experiment is described as follows: Antiviral activity against HCV by replicon assay. (In general: A replicon is a self-replicating genome or part of one, used to study replication in cells.)

The structures appear in SMILES notation.

In general, IC50 refers to the concentration that gives 50% inhibition. `NC(=O)c1c(NC(=O)CCc2ccccc2)sc2c1CCCC2` yielded an IC50 with Hepatitis C virus [1] of more than 100 µM.

By EC50 is commonly meant the midpoint of the concentration-response curve. A lower EC50 goes with greater potency. Turning to `CCc1c(C)sc(NC(=O)CCc2ccccc2)c1C(N)=O`, the “Ratio CC50/EC50” value in experiment [2] is 3. A half-maximal effect on Hepatitis C virus [3] (EC50) was put at 0.92 µM. For the same molecule, in the experiment on Hepatitis C virus [1], the concentration for half-maximal inhibition (IC50) worked out at 50 µM.

The molecule `CCC1CCc2c(sc(NC(=O)CCc3ccccc3)c2C#N)C1` (stereo not given) registered an IC50 with Hepatitis C virus [1] of more than 100 µM.

On to `CCOC(=O)c1c(NC(=O)CCc2ccccc2)sc(C)c1CC`, for which the IC50 with Hepatitis C virus [1] is more than 100 µM.

In the experiment on Hepatitis C virus [1], `CC1CCc2c(sc(NC(=O)CCc3ccccc3)c2C(N)=O)C1` (stereo not given) displayed an IC50 of more than 100 µM.

For `CCc1c(C)sc(NC(=O)CCc2ccccc2)c1C#N`, in experiment [2], the “Ratio CC50/EC50” value amounted to 3. Besides, the EC50 at Hepatitis C virus [3] is 1.66 µM. Further, it took 25 µM to reach half-maximal inhibition in the experiment with Hepatitis C virus [1] (IC50).

In turn, `CCc1c(C)sc(NC(=O)CCc2ccccc2)c1C(=O)O` returned a half-maximal inhibitory concentration (IC50) in the experiment with Hepatitis C virus [1] of more than 100 µM.

With `Cc1sc(NC(=O)CCc2ccccc2)c(C(N)=O)c1C`, in the experiment on Hepatitis C virus [1], the IC50 is more than 100 µM.

`CCC1CCc2c(sc(NC(=O)CCc3ccccc3)c2C(N)=O)C1` (stereo not given): the “Ratio CC50/EC50” value in experiment [2] turned out to be 3. The molecule also returned an EC50 at Hepatitis C virus [3] of 1.95 µM. Besides, the IC50 in the experiment on Hepatitis C virus [1] was 30 µM.
